Data set [1] has as its system Bacillus subtilis BKM B-501. The data set can be described thus: Antibacterial activity (MIC/MBC), serial dilutions in liquid MH medium. Conditions: for MIC: 20 h, MH medium. The format is cell-based. As for the experimental part: (§1) The antibacterial activity of compounds was determined against Bacillus subtilis BKM B-501, Staphylococcus aureus 209P, Enterococcus faecalis BKM B-871, and Micrococcus luteus BKM Ac-2230 strains (acquired from the All-Russia Collection of Microorganisms at the Institute for Biochemistry and Physiology of Microorganisms, Russian Academy of Sciences). The main parameters characterizing the antibacterial activity are the minimal inhibitory concentration (MIC) and minimal bactericidal concentration (MBC). […] MBC is the least concentration that causes the death of all cells.
(§2) MIC was quantified by inhibiting culture growth in a liquid medium with serial dilutions of compounds using a modified procedure [Amsterdam, D., “Susceptibility Testing of Antimicrobials in Liquid Media,” in Antibiotics in Laboratory Medicine, Ed. by Lorian, V., 4th ed., Baltimore: Williams and Wilkins, 1996, pp. 52-111].
(§3) Bacteria were cultured and tests were carried out on an MH liquid medium (Mueller-Hinton medium: a dry extract of beef broth, 4 g/L; starch, 1.5 g/L; casein hydrolyzate, 17.5 g/L; Sigma-Fluka Catalog No. 70192) at 37° C., 100% humidity, and under stirring. Cultures (4th through 7th receeding post-thawing) in the exponential growth phase were used for tests.
(§4) Therefore, a correction for absorption was applied in estimating the optical density of bacterial suspensions for each compound with account for its concentration in the well.
(§5) The protocol for experimental antibacterial activity determination for tested compounds was as follows. A cryovial with the test strain culture (Bacillus subtilis BKIVI B-501, Staphylococcus aureus 209P, Enterococcus faecalis BKM B-871, or Micrococcus luteus BKIVI Ac-2230) in a medium with 7% DMSO stored in liquid nitrogen, was rapidly defrosted, and 1.5 mL of the fresh MH medium was inoculated with 100 μL of the cell suspension. Cells were grown for one day at 37° C. and stirred on an orbital shaker at 150 rpm. The morphologic features of the strain and the absence of contamination with foreign bacteria were verified by: (a) inoculation on an agarized (15 g/L agar) MH medium and observation of the shape and color of the grown colonies and (b) examination of characteristic morphologic features under a microscope (Mikmed-2, LOMO, Russia) equipped with a 40× objective lens. Further bacteria were cultured in 1 mL of the liquid MH medium at 37° C. under stirring. The cells were reseeded every day. Cell cultures were used in tests starting with 3rd reseeding and ending with 6th one.
(§6) For testing, 5 μL of a bacterial suspension in the stationary growth phase was transferred to 1 mL of a sterile MH medium and incubated until the exponential growth phase was attained (3 to 5 h, 37° C., stirring at 150 rpm). To estimate the microorganisms concentration, the optical density (A) of the resulting bacterial culture was measured at a wavelength of 595 nm. The value of A=0.2 measured from a […] portion of the cell suspension in a 96-well plate, with a correction for the medium absorption applied, was set to correspond to 4×10^8 cells/mL for both strains used. Taking into account the cell concentration measurements, the suspension was diluted with the MH medium to a concentration of from 5×10^4 to 1×10^5 cells/mL and transferred to a sterile 96-well plate in an amount of 100 μL, per well. Then, the cells were added with tested compounds and twofold serial dilutions of these compounds in plate's wells were made.
(§7) The controls used were: 100 μL of an additive-free bacterial culture (four wells); a bacterial culture added with 1% DMSO or water in the same volume as in the wells with the maximal concentration of the tested compounds (four wells); and 100 μL of the sterile MH medium without bacteria and without tested compounds for control of occasional contamination in the plate (four wells).

The test system of data set [2] is Enterococcus faecalis BKM B-871. The description is as above. The format is cell-based. As to conditions: for MIC: 20 h, MH medium. On the procedure: as §1, §2, §3, §4, §5, §6, §7
Data set [3] relates to Micrococcus luteus BKM Ac-2230. The data set is described as above. The format is cell-based. As to conditions: for MIC: 20 h, MH medium. On the procedure: as §1, §2, §3, §4, §5, §6, §7
Data set [4] concerns Staphylococcus aureus 209P. The data set is described as above. Type of data set: cell-based. As to conditions: for MIC: 20 h, MH medium. As for the experimental part: as §1, §2, §3, §4, §5, §6, §7
Another data set deals with human leukocytes. The experiment in a line: Cytotoxic activity against human leukocytes. Conditions: for toxic effect on human blood leukocytes (in words): concentrations of up to 1 mM, 3 h. On the procedure: Total leukocytes were isolated from human blood by unforced sedimentation using freshly collected venous blood from a healthy donor.
Blood (10 mL) added with 10 units/mL heparin was exposed for 2.5 h in the dark at a temperature of 15 to 18° C. A light-colored liquid supernatant (4 mL) was collected over the layer of sedimenting erythrocytes, washed three times with balanced Hanks's salt solution, and resuspended in the RPMI-1640 medium (added with 8% fetal bovine serum, 2 mM L-glutamine, and 10 mM HEPES; hereinafter, the complete medium).
The concentrations of leukocytes and erythrocytes in the suspension were determined by counts in Goryachev's chamber, after which the suspension was adjusted to a leukocyte concentration of (1.0±0.1)×10^6 cells/mL with the complete medium.
To determine the cytotoxicity of the tested compounds for human leukocytes, the cell suspension was transferred to wells of sterile 96-well plates, tested compounds were added with serial twofold dilutions (the range of tested concentrations was from 3.2 to 100 μM for GrD and gramicidin S; from 8 to 500 μM for compound XIII; and from 8 to 1000 μM for compounds V, VI, VII, VIII, IX, X, XI, XIV, XV, XIX, and Hem), and the mixture was carefully stirred. The experiment was performed in two replicas.
As controls served cells added with an equivalent amount of the solvent in which tested compounds were prepared, namely: water for compounds VII and X; an aqueous solution of DMSO for compounds V, VI, VIII, and IX; and DMSO for GrD, gramicidin S, Hem, XI, XIII, XIV, XV, and XIX. An additional control was an additive-free leukocyte suspension.
Cells were incubated with tested compounds for 3 h (37° C., 5% CO2, 100% humidity). Leukocyte death values were quantified using fluorescence microscopy. Staining with propidium iodide (it permeates only into dead cells nuclei) and Hoechst 33342 (it stains all nuclei) was used to recognize dead and living cells. Cells were incubated for 15 min in plates with propidium iodide and Hoechst 33342 (37° C., 5% CO2), and then the plates were placed under a microscope for analysis.
The dead cell fraction was derived from the fluorescence images of cells obtained in the blue (Hoechst 33342) and red (propidium iodide) spectral ranges using an Axio Observer (Zeiss, Germany) fluorescence microscope equipped with a 10× objective lens (Plan-Neofluar 10×/0.3). The following sets of fluorescence filters were used. For propidium iodide: a 530/585-nm bandpass excitation filter, a 600-nm cut-off dichroic minor, and a 615-nm longpass barrier filter for analysis. For Hoechst 33342: a 359/372-nm bandpass excitation filter, a 395-nm cut-off dichroic mirror, and a 397-nm longpass barrier filter for analysis.
A digital camera recorded three types of cell images: (a) an image in the transmitted white light; (b) a blue fluorescence image obtained with UV excitation, and (c) a red fluorescence image obtained with green light excitation. At least four fields of view were photographed per well in various regions of a well.

Here are results for five compounds from patent US8906897B2, “Antimicrobial agents based on hemin derivatives” (Obschestvo S Ogranichennoi Otvetstvennostiyu …, priority 2009, dated 2014).

Usually MBC stands for the smallest concentration meeting the test's criterion for killing. A high value points to weaker bactericidal potency. By MIC is commonly meant the smallest concentration in the dilution series that meets the test's criterion for growth inhibition. The low end stands for a more susceptible organism, the high end for a less susceptible organism. Regarding `C=CC1=C(C)c2cc3[n-]c(cc4nc(cc5[n-]c(cc1n2)c(C)c5CCC(=O)NCCc1c[nH]cn1)C(CCC(=O)NCCc1c[nH]cn1)=C4C)c(C)c3C=C.[Cl-].[Fe+3]` [Compound XIX, 6,7-bis-Histaminyl-Protohemin IX], the MBC result in data set [1] was “Not reached”; in data set [2], “Not reached”; in data set [3], 25 µM; in data set [4] it was “Not reached”. Moreover, the minimum inhibitory concentration (MIC) in data set [1] was determined as 100 ± 25 µM; in data set [2], 200 µM; in data set [3], 25 µM; in data set [4], 200 µM. For the same compound, in the data set on human leukocytes (3 h incubation), the “Death of leukocytes in the presence of 1 mM of compound” value (“Death of leukocytes” for short) was found to be 13 ± 1%. Besides, the “concentration at which a weak toxic effect on leukocytes appears” value in the data set on human leukocytes (3 h incubation) is about 1000 µM.
With `C=CC1=C(C)c2cc3[n-]c(cc4nc(cc5[n-]c(cc1n2)c(C)c5CCC(=O)NCCC(=O)NCCc1c[nH]cn1)C(CCC(=O)NCCC(=O)NCCc1c[nH]cn1)=C4C)c(C)c3C=C.[Cl-].[Fe+3]` [IX], the minimal bactericidal concentration (MBC) in data set [1] is 100 ± 25 µM; in data set [2], >400^3 μM; in data set [3], 25 µM; in data set [4], 400 µM. For the same compound, the minimal inhibitory concentration (MIC) in data set [1] was found to be 50 ± 13 µM; in data set [2] it was 200 µM; in data set [4] it was 100 µM. For the same compound, in the data set on human leukocytes (3 h incubation), the “Death of leukocytes” value amounted to 3.1 ± 0.3%. In addition, the “toxic effect on human blood leukocytes (in words)” value in the data set on human leukocytes was “did not cause the death”.
“6(7)-Mono(Arg-Gly-Asp)-Protohemin IX [Compound XI]”: the MBC is 25 ± 7 µM in data set [1], “Not reached” in data set [2], 200 µM in data set [3] and “Not reached” in data set [4]. Further, the MIC in data set [1] is 12.5 ± 4 µM; in data set [2], 100 µM; in data set [3] it was 50 µM; in data set [4] it was 12.5 µM. For the same compound, in the data set with human leukocytes (3 h incubation), the “Death of leukocytes” value was 8.6 ± 0.4%. In addition, in the data set with human leukocytes, the “toxic effect on human blood leukocytes (in words)” value is reported as “fully due to the toxic effect of the solvent”.
For the compound `C=CC1=C(C)c2cc3[n-]c(cc4nc(cc5[n-]c(cc1n2)c(C)c5CCC(=O)NCC(O)CO)C(CCC(=O)NCC(O)CO)=C4C)c(C)c3C=C.[Cl-].[Fe+3]` (stereo not drawn) [Compound XVII, Protohemin IX 6,7-bis-N-(2,3-Dihydroxypropyl)amide], the minimum bactericidal concentration (MBC) in data set [1], in data set [2], in data set [3] and in data set [4] was over 200 µM in each case. Moreover, the MIC in data set [1], in data set [2], in data set [3] and in data set [4] was over 200 µM in each case.
As to `C=CC1=C(C)c2cc3[n-]c(cc4nc(cc5[n-]c(cc1n2)c(C)c5CCC(=O)NC(CO)CO)C(CCC(=O)NC(CO)CO)=C4C)c(C)c3C=C.[Cl-].[Fe+3]` [Compound XVI, Protohemin IX 6,7-bis-N-(1,3-Dihydroxypropan-2-yl)amide], the MBC in data set [1], in data set [2], in data set [3] and in data set [4] was over 200 µM in each case. The MIC in data set [1], in data set [2], in data set [3] and in data set [4] was over 200 µM in each case.
